Assay results: patent US8435976B2, “4-substituted pyridin-3-yl-carboxamide compounds and methods of use” (F. Hoffmann-La Roche, priority 2009, dated 2013)

Assays:
BaF3 PIM2 cells = BaF3 PIM2 cells (Homo sapiens, UniProt Q9P1W9); assay: BaF3 PIM2 cell proliferation (Cell Titer Glo); format: cell-based; details: incubated overnight; read-out: Prolif BaF3_PIM2 (IC50)
Description: (§1) BaF3 parental line was obtained from the DSMZ repository. BaF3 lines transfected with PIM1 or PIM2 were generated. Mouse IL-3 was purchased from R&D Systems. G418 was purchased from Clontech. Media for BaF3 parental line contained RPMI, 10% FBS, 2 mM L-Glutamine, 2 ng/mL mIL-3. Media for BaF3 PIM1 & 2 lines contained RPMI, 10% FBS, 2 mM L-Glutamine, […]. Media for MM1.S line contained RPMI, 10% FBS, 2 mM L-Glutamine.
(§2) BaF3 parental cells, BaF3 PIM1 cells, BaF3 PIM2 cells, and MM1.S cells were seeded at 2 k/well, 5 k/well, 5 k/well, and 10 k/well respectively, in a 384-well plate, at 45 μL/well. Test compound was added at 5 μL/well. BaF3 cells (parental and transfected) were incubated overnight, while MM1.S cells were incubated for 72 hours at 37° C., 5% CO2. Cell Titer Glo Reagent (Promega) was added at 50 μL/well, the plates were incubated for 30 minutes, and their luminescence read on an HT Analyst. IC50/EC50 values for the test compound were calculated.

PIM1 = target: T1, PIM1 (Homo sapiens, UniProt P11309); assay: Pim-1 kinase enzymatic assay (Caliper LC3000, FAM-Pimtide substrate); format: biochemical; details: 20 pM PIM1, 10 μM ATP, 90 minutes; read-out: PIM1 LC3K (Ki)
T1 construct: made in house
Description: (§3) Reaction Buffer contained 10 mM HEPES, pH 7.2, 10 mM MgCl2, 0.01% Tween 20, 2 mM DTT.
(§4) PIM reactions were carried out in a final volume of 10 μL per well in a 384-well plate. […] The separation of product and substrate was optimized by choosing voltages and pressure using Caliper's Optimizer software (Hopkinton, Mass.). The separation conditions used a downstream voltage of −500V, an upstream voltage of −2150V, and a screening pressure of −1.2 psi. […] Substrate conversion was calculated from the electrophoregram using HTS Well Analyzer software (Caliper Life Sciences, Hopkinton, Mass.). Ki values for the test compound were calculated.

BaF3 PIM1 cells = BaF3 PIM1 cells (Homo sapiens, UniProt P11309); assay: BaF3 PIM1 cell proliferation (Cell Titer Glo); format: cell-based; details: incubated overnight; read-out: Prolif BaF3_PIM1 (IC50)
Description: as §1, §2

PIM2 = target: T2, PIM2 (Homo sapiens, UniProt Q9P1W9); assay: Pim-2 kinase enzymatic assay (Caliper LC3000, FAM-Pimtide substrate); format: biochemical; details: 50 pM PIM2, 10 μM ATP, 90 minutes; read-out: PIM2 LC3K (Ki)
T2 construct: made in house
Description: as §3, §4

MM1.S cells = assay: MM1.S cell proliferation, 72 hours (Cell Titer Glo); format: cell-based; details: Homo sapiens, 72 hours, read-out: Prolif MM1S ATP (EC50)
Description: as §1, §2

PIM3 = target: T3, PIM3 (Homo sapiens, UniProt Q86V86); assay: Pim-3 kinase enzymatic assay (Caliper LC3000, FAM-Pimtide substrate); format: biochemical; details: 55 pM PIM3, 10 μM ATP, 90 minutes; read-out: PIM3 LC3K (Ki)
T3 construct: made in house
Description: as §3, §4

Sequence of BaF3 PIM2 cells (Q9P1W9 whole entry, change not shown): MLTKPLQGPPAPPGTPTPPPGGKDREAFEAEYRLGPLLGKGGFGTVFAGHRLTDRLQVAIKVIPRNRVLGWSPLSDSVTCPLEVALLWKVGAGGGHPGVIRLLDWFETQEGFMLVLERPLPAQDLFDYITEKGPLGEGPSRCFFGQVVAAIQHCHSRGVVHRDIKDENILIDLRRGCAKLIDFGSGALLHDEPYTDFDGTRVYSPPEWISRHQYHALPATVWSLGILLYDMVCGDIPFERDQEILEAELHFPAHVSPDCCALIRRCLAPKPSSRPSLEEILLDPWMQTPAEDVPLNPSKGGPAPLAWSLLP
T2 sequence (Q9P1W9 whole entry): as the sequence (Q9P1W9 whole entry, change not shown) above
T1 sequence (P11309 whole entry): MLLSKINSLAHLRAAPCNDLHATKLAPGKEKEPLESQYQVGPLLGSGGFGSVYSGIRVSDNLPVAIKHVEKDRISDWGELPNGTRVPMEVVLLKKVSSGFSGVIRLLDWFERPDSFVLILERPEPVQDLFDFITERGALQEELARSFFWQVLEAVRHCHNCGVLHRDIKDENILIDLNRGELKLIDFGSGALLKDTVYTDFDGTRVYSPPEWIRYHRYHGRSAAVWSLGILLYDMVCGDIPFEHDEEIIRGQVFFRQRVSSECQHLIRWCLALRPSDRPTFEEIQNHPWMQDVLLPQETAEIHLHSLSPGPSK
Sequence of BaF3 PIM1 cells (P11309 whole entry, change not shown): as the sequence (P11309 whole entry) above

Compound | GI50 (BaF3 PIM2 cells) [µM] | Ki (PIM1) [nM] | GI50 (BaF3 PIM1 cells) [nM] | Ki (PIM2) [nM] | EC50 (MM1.S cells) [nM] | Ki (PIM3) [nM]
Cc1nc(C(=O)Nc2cnccc2N2CCC[C@H](N)C2)c(N)s1 [Example 8, (S)-5-amino-N-(4-(3-aminopiperidin-1-yl)pyridin-3-yl)-2-methylthiazole-4-carboxamide] | > 20 | 3.47 | 713 | 16.3 | > 20000 | 9.53
Nc1sc(-c2ccccn2)nc1C(=O)Nc1cnccc1N1CCC[C@H](N)C1 [Example 9, (S)-5-amino-N-(4-(3-aminopiperidin-1-yl)pyridin-3-yl)-2-(pyridin-2-yl)thiazole-4-carboxamide] | 1.9 | 0.084 | 68.8 | 0.16 | 89.7 | 0.014
Nc1sc(-c2cccnc2)nc1C(=O)Nc1cnccc1N1CCC[C@H](N)C1 [Example 11, (S)-5-amino-N-(4-(3-aminopiperidin-1-yl)pyridin-3-yl)-2-(pyridin-3-yl)thiazole-4-carboxamide] | 13.2 | 0.502 | 607 | 0.885 | 9200 | 0.166
Nc1sc(-c2ccc(Cl)cc2)nc1C(=O)Nc1cnccc1N1CCC[C@H](N)C1 [Example 12, (S)-5-amino-N-(4-(3-aminopiperidin-1-yl)pyridin-3-yl)-2-(4-chlorophenyl)thiazole-4-carboxamide] | 4.2 | 0.172 | 2300 | 1.06 | 6800 | 0.072
Nc1sc(-c2ccccc2OC(F)(F)F)nc1C(=O)Nc1cnccc1N1CCC[C@H](N)C1 [Example 15] | 3.3 | 1.93 | 945 | 16.4 | 4400 | 1.89
CC(C)(C)c1nc(C(=O)Nc2cnccc2N2CCC[C@H](N)C2)c(N)s1 [Example 16, (S)-5-amino-N-(4-(3-aminopiperidin-1-yl)pyridin-3-yl)-2-tert-butylthiazole-4-carboxamide] | > 20 | 1.56 | 926 | 3.83 | 10000 to 20000 | 2.26
Nc1sc(-c2c(F)cccc2F)nc1C(=O)Nc1cnccc1Cl [Example 17, 5-amino-N-(4-chloropyridin-3-yl)-2-(2,6-difluorophenyl)thiazole-4-carboxamide] | > 20 | 14 | > 20000 | 76.5 | > 20000 | 6.81
CN(C)C(=O)c1ccc(F)c(-c2nc(C(=O)Nc3cnccc3N3CCC[C@H](N)C3)c(N)s2)c1 [Example 18, (S)-5-amino-N-(4-(3-aminopiperidin-1-yl)pyridin-3-yl)-2-(5-(dimethylcarbamoyl)-2-fluorophenyl)thiazole-4-carboxamide] | 12.3 | 0.096 | 257 | 0.596 | 767 | 0.033
CN(C)Cc1nc(C(=O)Nc2cnccc2N2CCC[C@H](N)C2)c(N)s1 [Example 21, (S)-5-amino-N-(4-(3-aminopiperidin-1-yl)pyridin-3-yl)-2-((dimethylamino)methyl)thiazole-4-carboxamide] | > 20 | 420 | > 20000 | 242 | > 20000 | 138
NC(=O)c1cccc(-c2nc(C(=O)Nc3cnccc3N3CCC[C@H](N)C3)c(N)s2)c1 [Example 22, (S)-5-amino-N-(4-(3-aminopiperidin-1-yl)pyridin-3-yl)-2-(3-carbamoylphenyl)thiazole-4-carboxamide] | > 20 | 0.054 | 520 | 0.495 | 4700 | 0.052
Nc1sc(-c2cc(Cl)ccc2F)nc1C(=O)Nc1cnccc1N1CCC[C@H](N)C1 [Example 23, (S)-5-amino-N-(4-(3-aminopiperidin-1-yl)pyridin-3-yl)-2-(5-chloro-2-fluorophenyl)thiazole-4-carboxamide] | 1.8 | 0.034 | 2500 | 0.153 | 137 | 0.031
Nc1sc(-c2c(F)cccc2F)nc1C(=O)Nc1cnccc1N1CCCCC1 [Example 24, 5-amino-2-(2,6-difluorophenyl)-N-(4-(piperidin-1-yl)pyridin-3-yl)thiazole-4-carboxamide] | > 20 | 0.43 | > 14000 | 16.3 | 20000 | 1.76
CCOc1ccc(F)c(-c2nc(C(=O)Nc3cnccc3N3CCC[C@H](N)C3)c(N)s2)c1F [Example 26, (S)-5-amino-N-(4-(3-aminopiperidin-1-yl)pyridin-3-yl)-2-(3-ethoxy-2,6-difluorophenyl)thiazole-4-carboxamide] | 2.4 | 0.014 | 28.2 | 0.15 | 148 | 0.022
CCCOc1ccc(F)c(-c2nc(C(=O)Nc3cnccc3N3CCC[C@H](N)C3)c(N)s2)c1F [Example 27, (S)-5-amino-N-(4-(3-aminopiperidin-1-yl)pyridin-3-yl)-2-(3-propyloxy-2,6-difluorophenyl)thiazole-4-carboxamide] | 3.9 | 0.04 | 75.7 | 0.248 | 558 | 0.05
CCCCOc1ccc(F)c(-c2nc(C(=O)Nc3cnccc3N3CCC[C@H](N)C3)c(N)s2)c1F [Example 28, (S)-5-amino-N-(4-(3-aminopiperidin-1-yl)pyridin-3-yl)-2-(3-butyloxy-2,6-difluorophenyl)thiazole-4-carboxamide] | 2.8 | 0.102 | 135 | 0.434 | 1900 | 0.118
CC(C)Oc1ccc(F)c(-c2nc(C(=O)Nc3cnccc3N3CCC[C@H](N)C3)c(N)s2)c1F [Example 29, (S)-5-amino-N-(4-(3-aminopiperidin-1-yl)pyridin-3-yl)-2-(3-isopropyloxy-2,6-difluorophenyl)thiazole-4-carboxamide] | 4.3 | 0.058 | 48.9 | 0.565 | 1600 | 0.07
Cc1ccc(-c2nc(C(=O)Nc3cnccc3N3CCC[C@H](N)C3)c(N)s2)cc1 [Example 30, (S)-5-amino-N-(4-(3-aminopiperidin-1-yl)pyridin-3-yl)-2-(4-tolylthiazole)-4-carboxamide] | > 5 | 0.076 | 52.2 | 0.429 | 163 | 0.033
Cc1cccc(-c2nc(C(=O)Nc3cnccc3N3CCC[C@H](N)C3)c(N)s2)c1 [Example 31, (S)-5-amino-N-(4-(3-aminopiperidin-1-yl)pyridin-3-yl)-2-(3-tolylthiazole)-4-carboxamide] | 2.3 | 0.0464 | 66.5 | 0.339 | 1300 | 0.023
CCNC(=O)Nc1ccc(-c2nc(C(=O)Nc3cnccc3N3CCC[C@H](N)C3)c(N)s2)cc1 [Example 32, (S)-5-amino-N-(4-(3-aminopiperidin-1-yl)pyridin-3-yl)-2-(4-(3-ethylureido)phenyl)thiazole-4-carboxamide] | > 20 | 0.054 | 1700 | 0.127 | 650 | 0.022
COc1cc(F)c(-c2nc(C(=O)Nc3cnccc3N3CCC[C@H](N)C3)c(N)s2)c(F)c1 [Example 34, (S)-5-amino-N-(4-(3-aminopiperidin-1-yl)pyridin-3-yl)-2-(2,6-difluoro-4-methoxyphenyl)thiazole-4-carboxamide] | > 2.5 | 0.012 | 19.1 | 0.0957 | 56.8 | 0.022
COc1ccc(-c2nc(C(=O)Nc3cnccc3N3CCC[C@H](N)C3)c(N)s2)c(F)c1 [Example 35, (S)-5-amino-N-(4-(3-aminopiperidin-1-yl)pyridin-3-yl)-2-(2-fluoro-4-methoxyphenyl)thiazole-4-carboxamide] | 2 | 0.709 | 29.3 | 5.28 | 2300 | 1.13
